Results taken from US9011853B2, “B7-H4 fusion proteins and methods of use thereof” (Amplimmune, Inc., priority 2009, dated 2015).

Tested on: serum levels of 58 analytes
Experiment: Serum biomarker analysis, quantitative immunoassay multi-analyte profiling (Rules-Based Medicine RodentMAP v2.9), AA#80
Assay type: in vivo, mouse
Method: In AA#80, serum samples were collected on Day 27, Day 34, Day 41 and Day 55 via the submandibular vein. Approximately 200 μL of blood per mouse was collected in Microtainer® serum separator tubes. Serum was removed following centrifugation and stored at <−65° C. until analysis.
Selected serum samples were sent to Rules-Based Medicine (Austin, Tex.) for quantitative immunoassay multi-analyte profiling of serum samples, with the goal of identifying biomarkers that could be used to monitor disease progression and response to B7-H4-Ig treatment. Day 27, Day 34, and Day 41 sera from the three representative mice in the B7-H4-Ig group (tag #3332, 3334, and 3338) and three representative mice in the Synagis® group (tag #3324, 3329, and 3330) were analyzed for levels of 58 analytes using the RodentMAP v2.9 Testing Service.
Data from the Rules-Based Medicine analysis was analyzed using Microsoft Excel and GraphPad Prism software. T-tests were performed to compare the levels of each analyte in the B7-H4-Ig versus Synagis® treated samples. No correction was made for multiple comparisons. Additionally, correlation coefficients were calculated for each analyte versus disease score.

B7-H4-Ig: B7-H4 extracellular domain fused to Ig Fc; bare label is the human protein in Example 3, murine protein in Examples 1, 2, 5, 7-11
serum IL-6 levels, difference between Synagis and B7-H4-Ig groups (AA#80 serum (FIG. 11)): did not reach statistical significance | serum SAP levels (B7-H4-Ig vs Synagis treated groups): not significantly different | serum MIP-2 levels (Day 41, vs Synagis treated mice (FIG. 15)): significantly lower | serum ET-1 levels (Day 41 and overall, vs Synagis treated mice (FIG. 10)): significantly lower | serum MCP-1 levels (Day 41 and overall, vs Synagis treated mice (FIG. 12)): significantly lower | serum MCP-3 levels (Day 41 and overall, vs Synagis treated mice (FIG. 14)): significantly lower | serum samples with TNF-α levels above the limit of detection (all samples (Day 27, 34, 41) (FIG. 16)): none
